This passage reports Ki results from patent US7968577B2 (Bristol-Myers Squibb Company, priority 2006, dated 2011).

This experiment deals with T1, human glucocorticoid receptor (Homo sapiens, UniProt P04150).
T1 construct: purified human recombinant full-length glucocorticoid receptor; purchased Invitrogen Part #2893
T1 sequence (P04150 1-777): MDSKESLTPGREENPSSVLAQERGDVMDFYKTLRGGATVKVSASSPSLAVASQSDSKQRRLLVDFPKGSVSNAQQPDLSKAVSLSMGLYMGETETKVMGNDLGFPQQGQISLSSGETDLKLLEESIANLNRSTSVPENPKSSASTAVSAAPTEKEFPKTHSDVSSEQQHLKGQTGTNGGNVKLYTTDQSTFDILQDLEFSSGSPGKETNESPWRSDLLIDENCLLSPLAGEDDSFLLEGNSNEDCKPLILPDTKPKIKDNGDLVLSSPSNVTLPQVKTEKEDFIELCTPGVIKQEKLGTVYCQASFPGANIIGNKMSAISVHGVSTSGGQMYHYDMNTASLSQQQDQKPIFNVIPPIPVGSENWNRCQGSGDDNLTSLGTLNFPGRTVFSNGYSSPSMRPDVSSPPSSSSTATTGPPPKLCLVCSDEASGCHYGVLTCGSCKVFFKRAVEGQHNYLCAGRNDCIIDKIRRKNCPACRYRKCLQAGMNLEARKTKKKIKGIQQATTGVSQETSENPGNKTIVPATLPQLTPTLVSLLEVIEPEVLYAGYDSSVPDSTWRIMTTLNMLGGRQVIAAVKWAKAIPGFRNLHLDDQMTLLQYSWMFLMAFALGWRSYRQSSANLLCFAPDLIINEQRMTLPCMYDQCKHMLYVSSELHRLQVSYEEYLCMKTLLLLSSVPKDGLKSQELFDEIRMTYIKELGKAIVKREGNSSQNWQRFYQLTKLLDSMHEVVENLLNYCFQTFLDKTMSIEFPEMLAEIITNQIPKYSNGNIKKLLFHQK
Nature of the experiment: Glucocorticoid Receptor Binding Assay (I), fluorescence polarization competitor kit (Fluormone GS Red). The note with it: GR Binding Assay (I). The procedure:
Glucocorticoid Receptor Binding Assay (I)^a
In order to assess the affinity of test compounds for the human glucocorticoid receptor, a commercially available kit was used (Glucocorticoid Receptor Competitor Assay Kit, Invitrogen Part #2893). Briefly, purified human recombinant full-length glucocorticoid receptor (2 nM) was mixed with fluorescently labeled glucocorticoid (1 nM Fluormone GS Red) in the presence or absence of test compound. After two hour incubation at room temperature in the dark, the fluorescence polarization (FP) of the samples was measured. […] Test compounds were analyzed in the concentration range from 8.5 E-05 μM to 5 μM.
In general terms: Polarisation of emitted light reports the rotation of a fluorescent probe.
In turn, `CC(C)(C)c1csc(NC(=O)C2(C(c3ccccc3)c3ccccc3)CCCC2)n1` [Example 151, N-(4-(1,1-dimethylethyl)-1,3-thiazol-2-yl)-1-(diphenylmethyl) cyclopentanecarboxamide] yielded a Ki of 1150 nM.

As for `CC(C)CC(c1ccc(-c2ccc(OC(F)(F)F)cc2)cc1)C(C)(C)C(=O)Nc1nncs1` (stereo not drawn) [Example 437, 2,2,5-trimethyl-N-1,3,4-thiadiazol-2-yl-3-(4′-(trifluoromethoxy)-4-biphenylyl)hexanamide], the affinity corresponds to a Ki of 5.33 nM.

`CC(C)CC(c1ccc(-c2ccc(Cl)cc2)cc1)C(C)(C)C(=O)Nc1nncs1` (stereo not drawn) [Example 432, 3-(4′-chloro-4-biphenylyl)-2,2,5-trimethyl-N-1,3,4-thiadiazol-2-ylhexanamide] registered an inhibition constant Ki of 184 nM.

The compound `CC(=O)c1cccc(-c2ccc(C(CC(C)C)C(C)(C)C(=O)Nc3nncs3)cc2)c1` (stereo not drawn) [Example 439, 3-(3′-acetyl-4-biphenylyl)-2,2,5-trimethyl-N-1,3,4-thiadiazol-2-ylhexanamide] had a Ki of 20.3 nM.

`CCC(C)(C(=O)Nc1nccs1)C(c1ccccc1)c1ccccc1` (stereo not drawn) [Example 176, 2-(diphenylmethyl)-2-methyl-N-1,3-thiazol-2-ylbutanamide]: the inhibitory constant (Ki) was found to be 54 nM.

`CCC(CC)(C(=O)Nc1nccs1)C(c1ccccc1)c1ccccc1` [Example 159, 2-(diphenylmethyl)-2-ethyl-N-1,3-thiaozl-2-ylbutanamide] had an inhibitory constant (Ki) of 101 nM.

In the case of `CC(C)(C(=O)Nc1nncs1)C(c1ccccc1)c1ccc(-c2cccc(Cl)c2)cc1` (stereo not drawn) [Example 409, 3-(3′-chloro-4-biphenylyl)-2,2-dimethyl-3-phenyl-N-1,3,4-thiadiazol-2-ylpropanamide], the Ki is 25.4 nM.

`CN(C)C(=O)c1ccc(-c2ccc(C(c3ccccc3)C(C)(C)C(=O)Nc3nncs3)cc2)cc1` (stereo not drawn) [Example 380, 4′-(2,2-dimethyl-3-oxo-1-phenyl-3-(1,3,4-thiadiazol-2-ylamino)propyl)-N,N-dimethyl-4-biphenylcarboxamide] yielded a Ki of 24.2 nM.

As to `COc1cccc(-c2ccc(C(c3ccccc3)C(C)(C)C(=O)Nc3nncs3)cc2)c1` (stereo not drawn) [Example 410, 3-(3′-methoxy-4-biphenylyl)-2,2-dimethyl-3-phenyl-N-1,3,4-thiadiazol-2-ylpropanamide], affinity was put at a Ki of 4.45 nM.

On to `CC(=O)Nc1ccc(-c2ccc(C(CC(C)C)C(C)(C)C(=O)Nc3nncs3)cc2)cc1` (stereo not drawn) [Example 440, 3-(4′-acetamido-4-biphenylyl)-2,2,5-trimethyl-N-1,3,4-thiadiazol-2-ylhexanamide], for which the affinity corresponds to a Ki of 21.4 nM.

Compound `CC(C)CC(c1ccc(Br)cc1)C(C)(C)C(=O)Nc1nccs1` (stereo not drawn) [Example 386, 3-(4-bromophenyl)-2,2,5-trimethyl-N-1,3-thiazol-2-ylhexanamide] yielded a Ki of 20.6 nM.

On to `CCCCOc1ccc(-c2ccc(C(c3ccccc3)C(C)(C)C(=O)Nc3nncs3)cc2)cc1` (stereo not drawn) [Example 416, 3-(4′-butoxy-4-biphenylyl)-2,2-dimethyl-3-phenyl-N-1,3,4-thiadiazol-2-ylpropanamide], for which the affinity corresponds to a Ki of 42.5 nM.

Take `CC(C)CC(c1ccc(-c2ccc(C(=O)NC3CC3)cc2)cc1)C(C)(C)C(=O)Nc1nncs1` (stereo not drawn) [Example 429, N-cyclopropyl-4′-(1-(1,1-dimethyl-2-oxo-2-(1,3,4-thiadiazol-2-ylamino)ethyl)-3-methylbutyl)-4-biphenylcarboxamide]: the Ki was determined as 31 nM.

Consider `CC(C)(C(=O)Nc1nncs1)C(c1ccccc1)c1ccc(Br)cc1` (stereo not drawn) [Example 323, 3-(4-bromophenyl)-2,2-dimethyl-3-phenyl-N-1,3,4-thiadiazol-2-ylpropanamide], for which the Ki stood at 5.07 nM.

`CC(C)(C(=O)Nc1nncs1)C(c1ccccc1)c1ccc(-c2ccc(CO)cc2)cc1` (stereo not drawn) [Example 421, 3-(4′-(hydroxymethyl)-4-biphenylyl)-2,2-dimethyl-3-phenyl-N-1,3,4-thiadiazol-2-ylpropanamide] returned an inhibition constant (Ki) of 5.72 nM.

As usually defined, the Ki is the dissociation constant of the complex between target and ligand, obtained from inhibition or displacement. Low readings indicate tighter binding, high ones weaker binding.
